Measured values: PubChem BioAssay AID1963849 (Molecular Pharmacology Branch, DTP, NCI, 2024)

Tested on: 299254-011-R-J1-PDC complex spheroid viability
Experiment: Anticancer human tumor 299254-011-R-J1-PDC patient-derived melanoma cell line growth inhibition [POLQ]
Details: for IC50: curve of first compound; for viability, T/C: stronger effect = lower value
How it was run: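 PDC + HUVEC + MSC complex spheroids; POLQ inhibitors ± partner drugs; top conc. at/near clinical Cmax, else 10 microM (SN-38 1 microM), half-log dilutions; 37 degrees C, 5% CO2.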
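Further: spheroids exposed to drugs for one week before measurement.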
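Wherever viability, T/C is given: percent viability relative to DMSO vehicle control taken as 100%.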

CC(=O)O[C@H]1C(=O)[C@@]2(C)[C@H]([C@H](OC(=O)c3ccccc3)[C@]3(O)C[C@H](OC(=O)[C@H](O)[C@@H](NC(=O)c4ccccc4)c4ccccc4)C(C)=C1C3(C)C)[C@]1(OC(C)=O)CO[C@@H]1C[C@@H]2O + Nc1ccc(C#CCN(C(=O)Cc2ncc(C(F)(F)F)cc2C(F)(F)F)c2ccc(F)cc2)nn1
IC50 (second compound 0.0316 µM): 153 nM | IC50 (second compound 0.1 µM): 85.6 nM | IC50 (second compound 0.316 µM): 109 nM | IC50 (second compound 1 µM): 50.2 nM | IC50 (second compound 3.16 µM): 24.9 nM | IC50 (second compound 10 µM): < 9.49 nM | viability, T/C (second compound 0.0316 µM, first compound 0.00949 µM): 90.2% | viability, T/C (second compound 0.0316 µM, first compound 0.03 µM): 76.6% | viability, T/C (second compound 0.0316 µM, first compound 0.0949 µM): 59.5% | viability, T/C (second compound 0.0316 µM, first compound 0.3 µM): 37.8% | viability, T/C (second compound 0.0316 µM, first compound 0.949 µM): 28.6% | viability, T/C (second compound 0.0316 µM, first compound 3 µM): 24.8% | viability, T/C (second compound 0.1 µM, first compound 0.00949 µM): 103% | viability, T/C (second compound 0.1 µM, first compound 0.03 µM): 78.6% | viability, T/C (second compound 0.1 µM, first compound 0.0949 µM): 43.7% | viability, T/C (second compound 0.1 µM, first compound 0.3 µM): 39.5% | viability, T/C (second compound 0.1 µM, first compound 0.949 µM): 28.4% | viability, T/C (second compound 0.1 µM, first compound 3 µM): 26.9% | viability, T/C (second compound 0.316 µM, first compound 0.00949 µM): 84.2% | viability, T/C (second compound 0.316 µM, first compound 0.03 µM): 85.3% | viability, T/C (second compound 0.316 µM, first compound 0.0949 µM): 52% | viability, T/C (second compound 0.316 µM, first compound 0.3 µM): 32.5% | viability, T/C (second compound 0.316 µM, first compound 0.949 µM): 27.8% | viability, T/C (second compound 0.316 µM, first compound 3 µM): 24.5% | viability, T/C (second compound 1 µM, first compound 0.00949 µM): 80.8% | viability, T/C (second compound 1 µM, first compound 0.03 µM): 58.2% | viability, T/C (second compound 1 µM, first compound 0.0949 µM): 39.2% | viability, T/C (second compound 1 µM, first compound 0.3 µM): 32.3% | viability, T/C (second compound 1 µM, first compound 0.949 µM): 21.7% | viability, T/C (second compound 1 µM, first compound 3 µM): 25.4% | viability, T/C (second compound 3.16 µM, first compound 0.00949 µM): 74.7% | viability, T/C (second compound 3.16 µM, first compound 0.03 µM): 43.5% | viability, T/C (second compound 3.16 µM, first compound 0.0949 µM): 35.5% | viability, T/C (second compound 3.16 µM, first compound 0.3 µM): 25.9% | viability, T/C (second compound 3.16 µM, first compound 0.949 µM): 22.7% | viability, T/C (second compound 3.16 µM, first compound 3 µM): 25.4% | viability, T/C (second compound 10 µM, first compound 0.00949 µM): 47.5% | viability, T/C (second compound 10 µM, first compound 0.03 µM): 36% | viability, T/C (second compound 10 µM, first compound 0.0949 µM): 26.9% | viability, T/C (second compound 10 µM, first compound 0.3 µM): 20.9% | viability, T/C (second compound 10 µM, first compound 0.949 µM): 24.8% | viability, T/C (second compound 10 µM, first compound 3 µM): 23.2%
